How the values were obtained:
Conditions in all cases: in vivo
Mus musculus [1] = experiment: Neurotoxicity in mouse assessed as tremorgenic activity at 160 mg/kg, ip; format: toxicity, organism-based; set-up: dose 160 mg/kg, route intraperitoneal
Mus musculus [2] = experiment: Neurotoxicity in mouse assessed as distress at 160 mg/kg, ip; format: toxicity, organism-based; set-up: dose 160 mg/kg, route intraperitoneal
Mus musculus [3] = experiment: Neurotoxicity in mouse assessed as ataxia at 160 mg/kg, ip; format: toxicity, organism-based; set-up: dose 160 mg/kg, route intraperitoneal
Mus musculus [4] = experiment: Neurotoxicity in mouse assessed as labored breathing at 160 mg/kg, ip; format: toxicity, organism-based; set-up: dose 160 mg/kg, route intraperitoneal
[5] = Toxicity in ip dosed mouse; format: organism-based

SMILES | Activity (Mus musculus [1]) | Activity (Mus musculus [2]) | Activity (Mus musculus [3]) | Activity (Mus musculus [4]) | LD50 [5]
C=CC(C)(C)[C@@]12C[C@H]3C(=O)N[C@H](CC(C)C)C(=O)N3[C@H]1N(C(C)=O)c1ccccc12 [VERRUCOFORTINE] | Non-toxic | Non-toxic | Non-toxic | Non-toxic | –
COc1c(C)c([C@]2(C)O[C@H]2/C(C)=C/C(C)=C/[C@]2(C)O[C@H](C)[C@@]3(C)O[C@H]32)oc(=O)c1C [VERRUCOSIDIN] | – | – | – | – | 4 mg/kg
